pIC50: −log10 of the molar value.
Legend:
HepG2 = assay: Antiproliferative activity against human HepG2 cells assessed as cell growth inhibition measured after 48 hrs by CCK8 assay; format: functional, cell-based; details: HepG2, 48 h
MCF7 = assay: Antiproliferative activity against human MCF7 cells assessed as cell growth inhibition measured after 48 hrs by CCK8 assay; format: functional, cell-based; details: MCF7, 48 h
HeLa = assay: Antiproliferative activity against human HeLa cells assessed as cell growth inhibition measured after 48 hrs by CCK8 assay; format: functional, cell-based
K562 = assay: Antiproliferative activity against human K562 cells assessed as cell growth inhibition measured after 48 hrs by CCK8 assay; format: functional, cell-based; details: K562, 48 h
A549 [1] = assay: Antiproliferative activity against human A549 cells assessed as cell growth inhibition measured after 48 hrs by CCK8 assay; format: functional, cell-based; details: A549, 48 h
[2] = biological target: CDK2/Cyclin A2 (Homo sapiens) (UniProt P24941+P20248); details: dose 100.0 nM, time 10.0 min
[3] = biological target: CDK4/Cyclin D3 (Homo sapiens) (UniProt P11802+P30281); details: dose 100.0 nM, time 10.0 min
[4] = biological target: CDK6/cyclin D3 (Homo sapiens) (UniProt P30281+Q00534); details: dose 100.0 nM, time 10.0 min
[5] = biological target: Histone deacetylase (Homo sapiens) (UniProt Q13547+O15379+Q9UBN7+Q92769+Q9UQL6+Q8WUI4+Q9BY41+Q96DB2+P56524+Q9UKV0+Q969S8); details: HeLa, Nucleus, dose 1000.0 nM, time 1.0 hrs
A549 [6] = assay: Synergistic antiproliferative activity against human A549 cells assessed as combination index in presence of vorinostat by Chou-Talalay method; format: functional
A549 [7] = assay: Synergistic antiproliferative activity against human A549 cells assessed as combination index in presence of 2.5 to 46 uM tubastatin-A by Chou-Talalay method; format: functional; details: dose 2.5-46 µM

Row | SMILES | inhibition [2] [%] | inhibition [3] [%] | inhibition [4] [%] | inhibition [5] [%] | also measured
1 | CC(=O)c1c(C)c2cnc(Nc3ccc(N4CCNCC4)cn3)nc2n(C2CCCC2)c1=O [PALBOCICLIB] | – | – | – | – | pIC50 (HepG2): < 5.00; pIC50 (MCF7): < 5.00; pIC50 (HeLa): < 5.00; pIC50 (K562): < 5.00; pIC50 (A549 [1]): 5.03; CI (A549 [6]): 0.9; CI (A549 [7]): 0.9
2 | O=C1Nc2ccccc2/C1=C1/Nc2ccccc2/C1=N\O | 33.9 | -1.5 | 46.6 | 15 | –
3 | O=C(CCCCCO/N=C1/C(=C2/C(=O)Nc3ccc(Br)cc32)Nc2ccccc21)NO | – | 3.5 | -0.7 | 21.4 | –
4 | O=C(CCCCCCO/N=C1/C(=C2/C(=O)Nc3ccccc32)Nc2ccc(Br)cc21)NO | 0.5 | – | – | 79.5 | –
5 | O=C(CCCCCCO/N=C1/C(=C2/C(=O)Nc3ccc(Br)cc32)Nc2ccccc21)NO | 5 | -4.3 | -2.3 | 87.5 | –
6 | O=C(CO/N=C1/C(=C2/C(=O)Nc3ccccc32)Nc2ccccc21)NO | 46.7 | 26.2 | 46.8 | 19.6 | –
7 | Cc1cccc2c1NC(=O)/C2=C1\Nc2ccccc2\C1=N/OCCCCCCC(=O)NO | 2.1 | 2 | 4.6 | 91.1 | –
8 | Cc1ccc2c(c1)/C(=C1/Nc3ccccc3/C1=N\OCCCCCCC(=O)NO)C(=O)N2 | 18.6 | 1.3 | -2.2 | 89.9 | –
9 | O=C(CCCCCCO/N=C1/C(=C2/C(=O)Nc3ccc(F)cc32)Nc2ccccc21)NO | 45.4 | 17.2 | 4.9 | 82.7 | –
10 | O=C(CCCCCCC(=O)Nc1ccccc1)NO | 2.9 | -5.8 | 0.8 | – | –
11 | O=C(CCCCCCCO/N=C1/C(=C2/C(=O)Nc3ccccc32)Nc2ccccc21)NO | 6.6 | -4.5 | -2.7 | 90.6 | –
12 | O=C(CO/N=C1/C(=C2/C(=O)Nc3ccc(Br)cc32)Nc2ccccc21)NO | – | 54.5 | 44.4 | 17.5 | –
13 | O=C(CCCCCCO/N=C1/C(=C2/C(=O)Nc3ccccc32)Nc2ccc([N+](=O)[O-])cc21)NO | 6.2 | – | – | 76.6 | –
14 | O=C(CCCCO/N=C1/C(=C2/C(=O)Nc3ccc(Br)cc32)Nc2ccccc21)NO | – | 17.9 | 8 | 60.2 | –
15 | Cc1ccc2c(c1)NC(=C1\C(=O)Nc3ccccc31)/C2=N/OCCCCCCC(=O)NO | 4 | – | – | 94.4 | –
16 | O=C(CCCCCCO/N=C1/C(=C2/C(=O)Nc3ccccc32)Nc2ccccc21)NO | 14.6 | 6.1 | 6.5 | 98.1 | –

More lines, main results first:

Row | inhibition [2] [%] | inhibition [3] [%] | inhibition [4] [%] | inhibition [5] [%] | SMILES | also measured
17 | 8.5 | 1 | 25.1 | 17.2 | O=C1Nc2ccccc2/C1=C1/Nc2ccccc2C1=O [INDIRUBIN] | pIC50 (HepG2): < 5.00; pIC50 (MCF7): < 5.00; pIC50 (HeLa): < 5.00; pIC50 (K562): < 5.00; pIC50 (A549 [1]): < 5.00
18 | -1.4 | – | – | 90.8 | O=C(CCCCCCO/N=C1/C(=C2/C(=O)Nc3ccccc32)Nc2ccc(Cl)cc21)NO | –
19 | 33.4 | 1.1 | 1 | 77.2 | O=C(CCCCCCO/N=C1/C(=C2/C(=O)Nc3ccc([N+](=O)[O-])cc32)Nc2ccccc21)NO | –
20 | 55.7 | 9.7 | 0.8 | 67.3 | O=C(CCCCCCO/N=C1/C(=C2/C(=O)Nc3ccc(I)cc32)Nc2ccccc21)NO | –
21 | 11.6 | -1.7 | 2.7 | 97.8 | Cc1ccc2c(c1)C(=N\OCCCCCCC(=O)NO)/C(=C1/C(=O)Nc3ccccc31)N2 | –
22 | 47.4 | 21.1 | 45.4 | 58.3 | O=C(CCCCO/N=C1/C(=C2/C(=O)Nc3ccccc32)Nc2ccccc21)NO | –
23 | 54 | 13 | 3.5 | 88.6 | COc1ccc2c(c1)/C(=C1/Nc3ccccc3/C1=N\OCCCCCCC(=O)NO)C(=O)N2 | –
24 | 4.5 | -2.5 | 8.3 | 44.7 | COc1ccc2c(c1)NC(=O)/C2=C1\Nc2ccccc2\C1=N/OCCCCCCC(=O)NO | –
25 | 30 | 10.2 | 28.8 | 89.9 | O=C(CCCCCO/N=C1/C(=C2/C(=O)Nc3ccccc32)Nc2ccccc21)NO | –
26 | 3 | -5.6 | 4 | 8 | O=C(CCCCCCO/N=C1/C(=C2/C(=O)Nc3c2cccc3C(F)(F)F)Nc2ccccc21)NO | –
27 | 5.9 | – | – | 93.5 | COc1ccc2c(c1)C(=N\OCCCCCCC(=O)NO)/C(=C1/C(=O)Nc3ccccc31)N2 | –
28 | 54.9 | 18 | 63 | 82.6 | O=C(CCCCCCO/N=C1/C(=C2/C(=O)Nc3ccc(Cl)cc32)Nc2ccccc21)NO | –
29 | – | -0.2 | -0.8 | 9.1 | O=C(CCCO/N=C1/C(=C2/C(=O)Nc3ccc(Br)cc32)Nc2ccccc21)NO | –

From ChEMBL document CHEMBL4842385, “Indirubin Derivatives as Dual Inhibitors Targeting Cyclin-Dependent Kinase and Histone Deacetylase for Treating Cancer” (J Med Chem, 2021)
